Measurements: patent US11982667B2, “Platelet aggregation capacity analyzer, analysis method, and analysis system using complex dielectric permittivity” (SONY CORPORATION, priority 2018, dated 2024)

What was measured:
[1] = test system: platelets in whole blood (ADP pathway); assay: DBCM platelet assay (ADP pathway), activation residual rate AR3 by Method 3; assay type: cell-based, human; conditions: citrated whole blood of healthy volunteers spiked with ticagrelor; final blood concentration 400 nM and above; ADP 13 μM; DCS74 feature value
Protocol: In this experiment, the operating sequence of the dielectric coagulation analyzer experimental machine developed for dielectric blood coagulometry (also simply herein referred to as “DBCM”) was used with some modifications to realize a platelet assay.
When the measurement is started, 200 μL of citric acid-added blood sample is dispensed into a disposable cartridge into which a reagent(s) has been introduced in advance, and the mixture is mixed and stirred by automatic pipetting with a suction volume of about 200 μL. […]
Immediately after the completion of stirring, the dielectric permittivity measurement was started, and a change in the blood dielectric permittivity associated with blood coagulation was recorded at a measurement frequency of from 10 kHz to 10 MHz, a measurement time of 60 min, and a measurement time interval of 5 sec. […]
Meanwhile, in Methods 1 and 2, the response upper limit was obtained when the measurement was conducted without adding any agonist experimentally. […] In this regard, however, the ideal measured value should be obtained when 215 mM lyophilized calcium chloride reagent without any agonist is used and the number of stirring operations is changed to 5 times which is the minimum so as to prevent some of the platelets from being activated and reacted due to stirring-induced shear stress. […]

[2] = single oral administration of 200 mg; cited from earlier work

In the case of `CCCSc1nc(N[C@@H]2C[C@H]2c2ccc(F)c(F)c2)c2nnn([C@@H]3C[C@H](OCCO)[C@@H](O)[C@H]3O)c2n1` [ticagrelor], the “platelet activation residual rate AR3 (%)” value [1] is given as no more than 30% and the maximum plasma concentration [2] is given as 923 ng/mL.
